melting point	Structure (SMILES)
110 to 118 °C	CCCCc1ncc(/C=C(\Cc2cc3c(cc2OC)OCO3)C(=O)O)n1-c1ccc(OC)cc1OCc1nnn(CCC)n1 [Example 24, (E)-3-[2-Butyl-1-[2-(2-propyl-2H-tetrazol-5-yl)methoxy-4-methoxyphenyl]-1H-imidazol-5-yl]-2-[(2-methoxy-4,5-methylenedioxyphenyl)methyl]-2-propenoic Acid]
185 to 190 °C	CCCCc1ncc(/C=C(\Cc2cc3c(cc2OC)OCO3)C(=O)O)n1-c1ccc(OC)cc1OCc1nnnn1CC [Example 23, (E)-3-[2-Butyl-1-[2-(1-ethyl-1H-tetrazol-5-yl)methoxy-4-methoxyphenyl]-1H-imidazol-5-yl]-2-[(2-methoxy-4,5-methylenedioxyphenyl)methyl]-2-propenoic Acid]

Source: patent US6620826B2, “Endothelin receptor antagonists” (SmithKline Beecham Corporation, priority 1994, dated 2003)
